Laboratory results reported in ChEMBL document CHEMBL4837250, “Discovery of LYC-55716: A Potent, Selective, and Orally Bioavailable Retinoic Acid Receptor-Related Orphan Receptor-γ (RORγ) Agonist for Use in Treating Cancer” (J Med Chem, 2021).
Converted amounts (≈) assume the structure as drawn.

Tests used:
physchem = details: PBS buffer, pH 7.4
Description: Solubility of the compound in pH 7.4 PBS buffer

CYP3A4 = CYP3A4 (Homo sapiens, UniProt P08684); assay: in vitro; details: probe testosterone
Description: Inhibition of CYP3A4 (unknown origin) assessed as oxidation of testosterone at 10 uM

in vitro = details: human, hepatocytes
[1] = biological target: T1, Nuclear receptor subfamily 1 group I member 2 (Homo sapiens, UniProt O75469)
T1 sequence (O75469 whole entry): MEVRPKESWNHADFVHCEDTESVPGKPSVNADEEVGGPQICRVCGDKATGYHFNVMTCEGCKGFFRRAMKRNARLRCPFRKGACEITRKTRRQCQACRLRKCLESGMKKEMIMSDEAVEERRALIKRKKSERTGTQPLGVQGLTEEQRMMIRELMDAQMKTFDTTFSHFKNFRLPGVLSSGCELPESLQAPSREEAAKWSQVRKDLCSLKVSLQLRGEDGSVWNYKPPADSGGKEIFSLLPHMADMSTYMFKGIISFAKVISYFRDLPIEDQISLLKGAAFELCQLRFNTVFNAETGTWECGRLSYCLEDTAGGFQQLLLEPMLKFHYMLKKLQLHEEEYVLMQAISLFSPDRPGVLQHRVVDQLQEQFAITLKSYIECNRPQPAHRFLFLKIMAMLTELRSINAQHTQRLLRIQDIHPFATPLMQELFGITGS
Description: Agonist activity at human PXR-gamma expressed in HEK293 cells assessed as transcriptional activity in presence of ursolic acid by Gal4-luciferase reporter assay

[2] = biological target: T2, Nuclear receptor ROR-gamma (Homo sapiens, UniProt P51449)
T2 sequence (P51449 whole entry): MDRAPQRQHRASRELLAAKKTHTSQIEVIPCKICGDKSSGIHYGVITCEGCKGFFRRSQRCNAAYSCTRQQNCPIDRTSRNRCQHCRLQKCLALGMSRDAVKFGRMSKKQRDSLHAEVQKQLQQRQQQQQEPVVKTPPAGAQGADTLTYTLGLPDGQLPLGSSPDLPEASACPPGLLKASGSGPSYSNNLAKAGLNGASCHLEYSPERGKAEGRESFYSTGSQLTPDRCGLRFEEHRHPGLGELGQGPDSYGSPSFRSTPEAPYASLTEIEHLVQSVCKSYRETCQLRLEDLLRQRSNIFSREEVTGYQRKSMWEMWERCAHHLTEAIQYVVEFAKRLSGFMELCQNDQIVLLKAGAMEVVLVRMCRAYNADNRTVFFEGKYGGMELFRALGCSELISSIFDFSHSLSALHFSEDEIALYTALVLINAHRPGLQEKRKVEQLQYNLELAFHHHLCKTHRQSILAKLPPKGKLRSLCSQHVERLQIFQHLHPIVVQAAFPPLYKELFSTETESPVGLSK
Description: Agonist activity at human His-tagged RORgamma-LBD expressed in Sf9 cells assessed as inhibition of N-terminal biotinylated co-activator SRC1 recruitment in presence of ursolic acid measured after 60 mins by FRET assay

[3] = biological target: T2, Nuclear receptor ROR-gamma; remark: listed apart in the source
Description: Agonist activity at human ROR-gamma LBD expressed in HEK293 cells assessed as transcriptional activity in presence of ursolic acid by Gal4-luciferase reporter assay

CYP2D6 = CYP2D6 (Homo sapiens, UniProt P10635); assay: in vitro; details: probe testosterone
Sequence of CYP2D6 (P10635 whole entry): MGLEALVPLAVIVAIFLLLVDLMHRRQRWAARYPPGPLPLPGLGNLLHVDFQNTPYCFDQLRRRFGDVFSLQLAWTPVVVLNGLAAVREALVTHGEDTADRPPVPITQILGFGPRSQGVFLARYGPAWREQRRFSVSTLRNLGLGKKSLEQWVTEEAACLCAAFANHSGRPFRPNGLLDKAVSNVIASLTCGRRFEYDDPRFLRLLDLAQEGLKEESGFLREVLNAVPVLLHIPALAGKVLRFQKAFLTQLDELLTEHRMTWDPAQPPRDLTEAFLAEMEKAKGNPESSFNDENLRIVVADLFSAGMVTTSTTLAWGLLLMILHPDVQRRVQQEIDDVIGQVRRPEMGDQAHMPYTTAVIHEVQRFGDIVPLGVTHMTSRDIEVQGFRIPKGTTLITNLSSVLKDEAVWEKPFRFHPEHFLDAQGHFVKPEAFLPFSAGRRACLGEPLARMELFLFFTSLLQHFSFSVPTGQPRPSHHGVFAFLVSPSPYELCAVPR
Description: Inhibition of CYP2D6 (unknown origin) assessed as oxidation of testosterone at 10 uM

Sequence of CYP3A4 (P08684 whole entry): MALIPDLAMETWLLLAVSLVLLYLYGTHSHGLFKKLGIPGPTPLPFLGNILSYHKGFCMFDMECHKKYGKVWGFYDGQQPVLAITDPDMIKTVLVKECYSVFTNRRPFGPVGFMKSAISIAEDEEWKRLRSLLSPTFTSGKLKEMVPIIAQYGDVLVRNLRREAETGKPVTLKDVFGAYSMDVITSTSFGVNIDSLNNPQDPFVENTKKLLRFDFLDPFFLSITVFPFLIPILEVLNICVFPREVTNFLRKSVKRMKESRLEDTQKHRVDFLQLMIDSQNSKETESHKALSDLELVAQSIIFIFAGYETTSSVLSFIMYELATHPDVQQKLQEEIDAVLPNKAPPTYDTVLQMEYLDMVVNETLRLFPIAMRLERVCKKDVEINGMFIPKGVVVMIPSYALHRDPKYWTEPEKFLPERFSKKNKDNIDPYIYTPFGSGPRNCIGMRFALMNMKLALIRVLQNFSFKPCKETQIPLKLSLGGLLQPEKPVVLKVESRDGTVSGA

Row | Structure (SMILES) | solubility (physchem) [µM] | inhibition at 10 µM (CYP3A4) [%] | hepatocyte CLint (in vitro) [µL/min/1e6 cells] | EC50 [1] [nM] | EC50 [2] [nM] | EC50 [3] [nM] | inhibition at 10 µM (CYP2D6) [%]
1 | O=C(O)CC[C@H]1CN(S(=O)(=O)c2cccc(C(F)(F)F)c2)c2cc(-c3cc(F)cc(F)c3)ccc2O1 | 277 (≈ 146 µg/mL) | 25 | 31 | > 10000 |  |  | 
2 | O=C(O)CC[C@H]1CN(S(=O)(=O)c2cccc(C(F)(F)F)c2)c2cc(/C=C/c3ccc(Cl)cc3F)ccc2O1 |  |  |  | > 10000 | 342 | > 10000 | 
3 | O=C(O)CC[C@H]1CN(S(=O)(=O)c2cccc(C(F)(F)F)c2)c2cc(-c3cc(F)cc(OC(F)F)c3)ccc2O1 |  | 5 |  | > 10000 |  |  | -6
4 | O=C(O)C1(C[C@H]2CN(S(=O)(=O)c3cccc(C(F)(F)F)c3)c3cc(-c4cc(F)ccc4F)ccc3O2)COC1 | 201 (≈ 114 µg/mL) |  |  | 18000 | 10 | 179 | 
5 | C/C(=C\c1ccc2c(c1)N(S(=O)(=O)c1cccc(C(F)(F)F)c1)C[C@H](CCC(=O)O)O2)c1c(Cl)cccc1Cl | 309 (≈ 186 µg/mL) | 6 | 23 | > 10000 | 435 | 487 | -1
6 | CC(C)(C[C@H]1CN(S(=O)(=O)c2cccc(C(F)(F)F)c2)c2cc(-c3cccc(Cl)c3F)ccc2O1)C(=O)O |  | 28.5 |  | > 10000 |  |  | 6
7 | C/C(=C\c1ccc2c(c1)N(S(=O)(=O)c1cccc(C(F)(F)F)c1)C[C@H](CCC(=O)O)O2)c1ccccc1C(F)(F)F | 260 (≈ 156 µg/mL) | 18 | 23 | > 10000 | 108 | 290 | 2
8 | C/C(=C\c1ccc2c(c1)N(S(=O)(=O)c1cccc(OC(F)F)c1)C[C@H](CCC(=O)O)O2)c1c(F)cccc1Cl | 248 (≈ 144 µg/mL) | 9 | 9.4 | 9100 | 195 | 280 | 2
9 | O=C(O)CC[C@H]1CN(S(=O)(=O)c2cccc(C(F)(F)F)c2)c2cc(-c3cccc(F)c3)ccc2O1 |  | 19 |  | > 10000 |  |  | 0
10 | O=C(O)C1(C[C@H]2CN(S(=O)(=O)c3cccc(C(F)(F)F)c3)c3cc(-c4cccc(Cl)c4F)ccc3O2)CCOCC1 | 93 (≈ 57.1 µg/mL) | 36 | 13 | > 10000 | 24 | 103 | 9
11 | O=C(O)CC[C@H]1CN(S(=O)(=O)c2cccc(C(F)(F)F)c2)c2cc(-c3cccc(Cl)c3)ccc2O1 |  | 24 |  | > 10000 |  |  | 0
12 | O=S(=O)(c1cccc(C(F)(F)F)c1)N1C[C@H](CC2(CO)COC2)Oc2ccc(Br)cc21 |  |  |  | > 10000 |  |  | 
13 | O=C(O)[C@@H](O)CC[C@H]1CN(S(=O)(=O)c2cccc(C(F)(F)F)c2)c2cc(-c3cc(F)ccc3F)ccc2O1 |  |  | 18 | > 10000 | 13 | 501 | 
14 | C[C@@H](C[C@H]1CN(S(=O)(=O)c2cccc(C(F)(F)F)c2)c2cc(-c3cc(F)ccc3F)ccc2O1)C(=O)O |  | 17 |  | > 10000 |  |  | 13
15 | O=C(O)CC[C@H]1CN(S(=O)(=O)c2cccc(C(F)(F)F)c2)c2cc(-c3cccc(OC(F)F)c3)ccc2O1 | 287 (≈ 160 µg/mL) | 19 | 36 | > 10000 | 10 | 278 | 7
16 | COc1cccc(-c2ccc3c(c2)N(S(=O)(=O)c2cccc(C(F)(F)F)c2)C[C@H](CCC(=O)O)O3)c1 | 280 (≈ 146 µg/mL) | 19 | 44 | > 10000 |  |  | 2
17 | O=C(O)CC[C@H]1CN(S(=O)(=O)c2cccc(C(F)(F)F)c2)c2cc(-c3cc(F)ccc3Cl)ccc2O1 | 239 (≈ 130 µg/mL) | 15 | 27 | > 10000 | 145 | 124 | 6

Row | Structure (SMILES) | solubility (physchem) [µM] | inhibition at 10 µM (CYP3A4) [%] | hepatocyte CLint (in vitro) [µL/min/1e6 cells] | EC50 [1] [nM] | EC50 [2] [nM] | EC50 [3] [nM] | inhibition at 10 µM (CYP2D6) [%]
18 | O=C(O)CC[C@H]1CN(S(=O)(=O)c2cccc(C(F)(F)F)c2)c2cc(-c3ccc(Cl)cc3)ccc2O1 | 15 (≈ 7.89 µg/mL) | 14 | 38 |  | 27 |  | -2
19 | COc1cc(F)cc(-c2ccc3c(c2)N(S(=O)(=O)c2cccc(C(F)(F)F)c2)C[C@H](CCC(=O)O)O3)c1 |  |  |  | > 10000 |  |  | 
20 | COc1ccccc1/C(C)=C/c1ccc2c(c1)N(S(=O)(=O)c1cccc(C(F)(F)F)c1)C[C@H](CCC(=O)O)O2 | 183 (≈ 103 µg/mL) | 19 | 33 | > 10000 |  |  | 3
21 | O=C(O)CC[C@H]1CN(S(=O)(=O)c2cccc(C(F)(F)F)c2)c2cc(-c3cc(F)ccc3F)ccc2O1 | 227 (≈ 120 µg/mL) | 13 | 31 | > 10000 | 8 | 181 | 1
22 | COc1cc(S(=O)(=O)N2C[C@H](CCC(=O)O)Oc3ccc(/C=C(\C)c4c(F)cccc4Cl)cc32)ccc1F |  | -0.5 |  | > 10000 |  |  | 10
23 | C/C(=C\c1ccc2c(c1)N(S(=O)(=O)c1cccc(C(F)(F)F)c1)C[C@H](CCC(=O)O)O2)c1ccccc1C |  | 0 |  |  |  |  | -6
24 | O=C(O)CC[C@H]1CN(S(=O)(=O)c2cccc(C(F)(F)F)c2)c2cc(/C=C/c3c(F)cccc3Cl)ccc2O1 | 273 (≈ 156 µg/mL) | 33 | 26 | > 10000 | 33 | 617 | -5.6
25 | O=C(O)C1(C[C@H]2CN(S(=O)(=O)c3cccc(C(F)(F)F)c3)c3cc(-c4cc(F)ccc4F)ccc3O2)CCOCC1 | 43 (≈ 25.7 µg/mL) | 5 | 21 | > 10000 | 5 | > 10000 | 8
26 | CC(C)c1ccc(-c2ccc3c(c2)N(S(=O)(=O)c2cccc(C(F)(F)F)c2)C[C@H](CCC(=O)O)O3)cc1 |  | -4 | 31 | > 10000 | 42 | > 10000 | 2
27 | O=C(O)C1(C[C@H]2CN(S(=O)(=O)c3cccc(C(F)(F)F)c3)c3cc(-c4cc(F)cc(OC(F)F)c4)ccc3O2)CCOCC1 | 90 (≈ 58.1 µg/mL) | -2 | 9 | 13000 | 8 | 58 | 4
28 | C[C@H](C[C@H]1CN(S(=O)(=O)c2cccc(C(F)(F)F)c2)c2cc(-c3cc(F)ccc3F)ccc2O1)C(=O)O |  | 18 |  | > 10000 |  |  | 11
29 | O=C(O)CC[C@H]1CN(S(=O)(=O)c2cccc(C(F)(F)F)c2)c2cc(-c3cccc(OCCO)c3)ccc2O1 |  |  |  | > 10000 | > 10000 | > 10000 | 
30 | C/C(=C\c1ccc2c(c1)N(S(=O)(=O)c1ccc(F)c(C3CC3)c1)C[C@H](CCC(=O)O)O2)c1c(F)cccc1Cl | 250 (≈ 144 µg/mL) | 4 | 11 | 6700 | 269 | 495 | 10
31 | C/C(=C\c1ccc2c(c1)N(S(=O)(=O)c1ccc(F)c(C(F)(F)F)c1)C[C@H](CCC(=O)O)O2)c1c(F)cccc1Cl | 61 (≈ 36.7 µg/mL) |  | 24 | 6000 | 85 | 411 | 
32 | O=C(O)[C@H](O)CC[C@H]1CN(S(=O)(=O)c2cccc(C(F)(F)F)c2)c2cc(-c3cc(F)ccc3F)ccc2O1 |  |  | 13 | > 10000 | 120 | 166 | 
33 | C/C(=C\c1ccc2c(c1)N(S(=O)(=O)c1cccc(C(F)(F)F)c1)C[C@H](CCC(=O)O)O2)c1ccccc1 | 267 (≈ 142 µg/mL) | -3 | 22 | > 10000 |  |  | 3
34 | C/C(=C\c1ccc2c(c1)N(S(=O)(=O)c1cccc(C(F)(F)F)c1)C[C@H](CCC(=O)O)O2)c1ccccc1Cl | 309 (≈ 175 µg/mL) | 7 | 22 | > 10000 |  |  | 13
